From PubChem BioAssay (NCI)
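Five concentrations, 48 hours, 96-well plates. GI50 marks 50% less growth. TGI: total growth inhibition.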

Key:
Test in all cases: inhibition of tumour cell growth, NCI panel, 48 h
786-0 renal = tested on: 786-0 renal
HCT-116 colon = tested on: HCT-116 colon
HCT-15 colon = tested on: HCT-15 colon
HOP-62 NSCLC = tested on: HOP-62 NSCLC
HS 578T breast = tested on: HS 578T breast
HT29 colon = tested on: HT29 colon
K-562 leukemia = tested on: K-562 leukemia
NCI-H460 lung = tested on: NCI-H460 lung
NCI-H522 lung = tested on: NCI-H522 lung
SK-MEL-5 melanoma = tested on: SK-MEL-5 melanoma

Structure (SMILES)	GI50 (786-0 renal) [µM]	TGI (786-0 renal) [µM]	GI50 (HCT-116 colon) [µM]	TGI (HCT-116 colon) [µM]	GI50 (HCT-15 colon) [µM]	TGI (HCT-15 colon) [µM]	GI50 (HOP-62 NSCLC) [µM]	TGI (HOP-62 NSCLC) [µM]	GI50 (HS 578T breast) [µM]	TGI (HS 578T breast) [µM]	GI50 (HT29 colon) [µM]	TGI (HT29 colon) [µM]	GI50 (K-562 leukemia) [µM]	TGI (K-562 leukemia) [µM]	GI50 (NCI-H460 lung) [µM]	TGI (NCI-H460 lung) [µM]	GI50 (NCI-H522 lung) [µM]	TGI (NCI-H522 lung) [µM]	GI50 (SK-MEL-5 melanoma) [µM]	TGI (SK-MEL-5 melanoma) [µM]
COc1ccc(C(c2cc(OC)c(OC)c(OC)c2)n2cncn2)cc1O (stereo not drawn)	0.474	> 100	0.448	> 100	0.438	> 100	0.514	> 100	0.548	> 100	0.33	1.9	0.427	> 100	0.414	> 100	0.395	2.37	0.44	38.3
C[C@@H]1CC[C@H]2C(C)(C)[C@H]3C[C@@]12CC[C@@]3(C)O		> 100		> 100		> 100		> 100		> 100		> 100		> 100		34.9		> 100		> 100
NC(=S)N/N=C\c1nccc2c(C(F)(F)F)cccc12	0.3	0.957	0.298	4.26	0.315	19.2	0.207	1.4	1.36	> 58.8	0.524	16.5	0.44	21.2	0.26	8.59	0.269	0.805	0.183	0.921
CC[C@@H](c1ccc(O)c(O)c1)[C@@H](CC)c1ccc(O)c(O)c1	20.4	38.2	4.23	14.4	2.39	9.41	17.7	33	73.3	> 100	11.9	58.2	3.38	94.5	26.1	62	2.46	5.63	13.6	28.9
COC(=O)[C@]12CC[C@@H](C)[C@H](C)[C@@H]1C1=CC[C@@H]3[C@@]4(C)C[C@@H](O)[C@H](O)[C@@](C)(CO)[C@@H]4[C@H](O)C[C@@]3(C)[C@]1(C)CC2	11.5	31.6	11.1	26.4	12.5	28.4	20.3	42.7	18.5	45.8	17.1	36.3	12.7	45.7	14.8	33.6	20.9	43.3	15.3	28.9
COC(=O)c1cc2oc(/C=C3/SC(=S)N(NC(C)=O)C3=O)cc2n1C	20.1	42.6	12.1	31.1	14.9	58.5	21.7	47.3	15.2	59.2	27.2	> 100	24.7	> 100	8.26	> 100	16.4	55.4	12.6	26.2
COc1cc(-c2nc3sccn3c2-c2ccnc(NCCNS(=O)(=O)c3ccc(F)cc3)n2)ccc1F	0.503	> 100	0.362	> 100	2.33	> 100	4.82	> 100	1.88	> 100	1.64	> 100	1.53	> 100	2.44	> 100	2.12	> 100	1.28	2.63
c1ccc(Nc2ncc(-c3ccccc3)o2)cc1	> 25	> 25	24.5	> 25	24.3	> 25	> 25	> 25	11.5	> 25	> 25	> 25	> 25	> 25	25	> 25	> 25	> 25	> 25	> 25
CC1(C)[C@@H](NOCCCN)CC[C@]2(C)[C@H]3C(=O)C=C4[C@@H]5C[C@](C)(C(=O)O)CC[C@]5(C)CC[C@@]4(C)[C@]3(C)CC[C@@H]12	6.23	19.2	2.95	11.5	3.6	> 100	13.5	48.4	4.23	50	3.45	16.1	2.57	12.1	8.29	46	2.08	4.85	3.17	10.9
CC(C)[C@@H]1NC(=O)[C@]2(C)CSC(=N2)c2ccnc(c2)CNC(=O)C[C@@H](/C=C/CCS)OC1=O	0.911	> 28	0.115	1.09	9.1	> 100	0.0525		0.0407		0.242	1.57	0.637	> 100	< 0.0253	> 100	0.249	5.14	0.0715	0.323
